Reference: patent publication US9181255B2, “Fused heteroaromatic pyrrolidinones as SYK inhibitors” (Takeda Pharmaceutical Company Limited, priority 2009, dated 2015)
Structures can show the parent of a compound that is named as a salt.

Target: SYK (Homo sapiens, UniProt P43405)
Experiment: SYK inhibition assay: SYK-mediated phosphorylation of FAM-labeled substrate (Caliper microfluidic)
Assay type: biochemical
Conditions: read-out: SYK Inhibition (pIC50) (converted)

Point of comparison: Cn1cc(-c2nc(N[C@@H]3CC(F)(F)C[C@@H]3N)c(F)c3c2C(=O)NC3)cn1 (relative stereo) [Example 66, 6-(cis-2-Amino-4,4-difluorocyclopentylamino)-7-fluoro-4-(1-methyl-1H-pyrazol-4-yl)-1H-pyrrolo[3,4-c]pyridin-3(2H)-one], IC50 501 nM. Against it:
- Cc1cccc(Nc2nc(N[C@@H]3CCCC[C@@H]3O)nc3c2C(=O)NC3)c1 (relative stereo) [Example 11, Cis-2-(2-Hydroxycyclohexylamino)-4-(m-tolylamino)-6,7-dihydro-5H-pyrrolo[3,4-d]pyrimidin-5-one] — 2.5-fold higher, 1260 nM
- Cc1cccc(Nc2nc(N[C@@H]3COC[C@@H]3N)cc3c2C(=O)NC3)c1 (relative stereo) [Example 58, 6-(cis-4-Aminotetrahydrofuran-3-ylamino)-4-(m-tolylamino)-1H-pyrrolo[3,4-c]pyridin-3(2H)-one] — 3.2-fold higher, 1580 nM
- Cn1cc(-c2nc(N[C@@H]3CCCC(F)(F)[C@@H]3N)c(F)c3c2C(=O)NC3)cn1 (relative stereo) [Example 67, 6-(cis-2-Amino-3,3-difluorocyclohexylamino)-7-fluoro-4-(1-methyl-1H-pyrazol-4-yl)-1H-pyrrolo[3,4-c]pyridin-3(2H)-one] — 13-fold lower, 39.8 nM
- N[C@@H]1[C@H](Nc2nc(-c3cnn(C(F)F)c3)c3c(c2F)CNC3=O)CCCC1(F)F (relative stereo) [Example 68, 6-(cis-2-Amino-3,3-difluorocyclohexylamino)-4-(1-(difluoromethyl)-1H-pyrazol-4-yl)-7-fluoro-1H-pyrrolo[3,4-c]pyridin-3(2H)-one] — 5-fold lower, 100 nM
- N[C@@H]1[C@H](Nc2nc(-c3cnn(C4CC4)c3)c3c(c2F)CNC3=O)CCCC1(F)F (relative stereo) [Example 69, 6-(cis-2-amino-3,3-difluorocyclohexylamino)-4-(1-cyclopropyl-1H-pyrazol-4-yl)-7-fluoro-1H-pyrrolo[3,4-c]pyridin-3(2H)-one] — 3.2-fold lower, 158 nM
- Cc1cccc(Nc2nc(N[C@@H]3CCCC(F)(F)[C@@H]3N)cc3c2C(=O)NC3)c1 (relative stereo) [Example 83, 6-(cis-2-Amino-3,3-difluorocyclohexylamino)-4-(m-tolylamino)-1H-pyrrolo[3,4-c]pyridin-3(2H)-one] — 2-fold lower, 251 nM
- N[C@H]1CCCC[C@H]1Nc1nc2c(c(Nc3cccc(F)c3)n1)C(=O)NC2 [Example 2, 2-((1R,2S)-2-Aminocyclohexylamino)-4-(3-fluorophenylamino)-6,7-dihydro-5H-pyrrolo[3,4-c]pyrimidin-5-one] — 4-fold lower, 126 nM
- N[C@H]1CCCC[C@H]1Nc1nc2c(c(Nc3cccc(Cl)c3)n1)C(=O)NC2 [Example 3, 2-((1R,2S)-2-Aminocyclohexylamino)-4-(3-chlorophenylamino)-6,7-dihydro-5H-pyrrolo[3,4-d]pyrimidin-5-one] — 20-fold lower, 25.1 nM
- N[C@H]1CCCC[C@H]1Nc1nc2c(c(Nc3ccc4cn[nH]c4c3)n1)C(=O)NC2 [Example 4, 4-(1H-Indazol-6-ylamino)-2-((1R,2S)-2-aminocyclohexylamino)-6,7-dihydro-5H-pyrrolo[3,4-c]pyrimidin-5-one] — 32-fold lower, 15.8 nM
- Cc1cccc(Nc2nc(-c3cnn(C)c3)nc3c2C(=O)NC3)c1 [Example 7, 2-(1-Methyl-1H-pyrazol-4-yl)-4-(m-tolylamino)-6,7-dihydro-5H-pyrrolo[3,4-c]pyrimidin-5-one] — 2-fold higher, 1000 nM
- CCN1CCN(c2nc3c(c(Nc4cccc(C)c4)n2)C(=O)NC3)CC1 [Example 9, 2-(4-Ethylpiperazin-1-yl)-4-(m-tolylamino)-6,7-dihydro-5H-pyrrolo[3,4-d]pyrimidin-5-one] — 16-fold higher, 7940 nM
- Cc1cccc(Nc2nc(NC3CCCCC3)nc3c2C(=O)NC3)c1 [Example 10, 2-(Cyclohexylamino)-4-(m-tolylamino)-6,7-dihydro-5H-pyrrolo[3,4-d]pyrimidin-5-one] — higher, > 20000 nM
- Cc1cccc(Nc2nc(N3CCCC(N)C3)nc3c2C(=O)NC3)c1 (centres unmarked) [Example 12, 2-(3-Aminopiperidin-1-yl)-4-(m-tolylamino)-6,7-dihydro-5H-pyrrolo[3,4-d]pyrimidin-5-one] — 4-fold higher, 2000 nM
- Cn1cc(-c2nc(N[C@@H]3CCCC[C@@H]3N)nc3c2C(=O)NC3)cn1 [Example 14, 2-((1R,2S)-2-Aminocyclohexylamino)-4-(1-methyl-1H-pyrazol-4-yl)-6,7-dihydro-5H-pyrrolo[3,4-d]pyrimidin-5-one] — 4-fold lower, 126 nM
- CC(C)Cn1cc(-c2nc(N[C@@H]3CCCC[C@@H]3N)nc3c2C(=O)NC3)cn1 [Example 15, 2-((1R,2S)-2-Aminocyclohexylamino)-4-(1-isobutyl-1H-pyrazol-4-yl)-6,7-dihydro-5H-pyrrolo[3,4-c]pyrimidin-5-one] — 2-fold higher, 1000 nM
- N[C@H]1CCCC[C@H]1Nc1nc2c(c(-c3ccccc3)n1)C(=O)NC2 [Example 16, 2-((1R,2S)-2-Aminocyclohexylamino)-4-phenyl-6,7-dihydro-5H-pyrrolo[3,4-d]pyrimidin-5-one] — 6.3-fold higher, 3160 nM
- N[C@H]1CCCC[C@H]1Nc1nc2c(c(-c3csc4ccccc34)n1)C(=O)NC2 [Example 17, 2-((1R,2S)-2-Aminocyclohexylamino)-4-(benzo[b]thiophen-3-yl)-6,7-dihydro-5H-pyrrolo[3,4-c]pyrimidin-5-one] — 13-fold lower, 39.8 nM
- CCn1cc(-c2nc(N[C@@H]3CCCC[C@@H]3N)nc3c2C(=O)NC3)cn1 [Example 18, 2-((1R,2S)-2-Aminocyclohexylamino)-4-(1-ethyl-1H-pyrazol-4-yl)-6,7-dihydro-5H-pyrrolo[3,4-d]pyrimidin-5-one] — 6.3-fold lower, 79.4 nM
- N[C@H]1CCCC[C@H]1Nc1nc2c(c(-c3cnn(Cc4ccccc4)c3)n1)C(=O)NC2 [Example 19, 2-((1R,2S)-2-Aminocyclohexylamino)-4-(1-benzyl-1H-pyrazol-4-yl)-6,7-dihydro-5H-pyrrolo[3,4-d]pyrimidin-5-one] — 2-fold lower, 251 nM
- N[C@H]1CCCC[C@H]1Nc1nc2c(c(-c3cnc4ccccn34)n1)C(=O)NC2 [Example 20, 2-((1R,2S)-2-Aminocyclohexylamino)-4-(imidazo[1,2-a]pyridin-3-yl)-6,7-dihydro-5H-pyrrolo[3,4-d]pyrimidin-5-one] — 2.5-fold lower, 200 nM
- CCCn1cc(-c2nc(N[C@@H]3CCCC[C@@H]3N)nc3c2C(=O)NC3)cn1 [Example 21, 2-((1R,2S)-2-Aminocyclohexylamino)-4-(1-propyl-1H-pyrazol-4-yl)-6,7-dihydro-5H-pyrrolo[3,4-c]pyrimidin-5-one] — the same, 501 nM
- COCCn1cc(-c2nc(N[C@@H]3CCCC[C@@H]3N)nc3c2C(=O)NC3)cn1 [Example 22, 2-((1R,2S)-2-Aminocyclohexylamino)-4-(1-(2-methoxyethyl)-1H-pyrazol-4-yl)-6,7-dihydro-5H-pyrrolo[3,4-d]pyrimidin-5-one] — 4-fold higher, 2000 nM
- N[C@H]1CCCC[C@H]1Nc1cc2c(c(Nc3ccc4cn[nH]c4c3)n1)C(=O)NC2 [Example 23, 4-(1H-Indazol-6-ylamino)-6-((1R,2S)-2-aminocyclohexylamino)-1H-pyrrolo[3,4-c]pyridin-3(2H)-one] — 250-fold lower, 2 nM
- Cc1cc(Nc2nc(N[C@@H]3CCCC[C@@H]3N)cc3c2C(=O)NC3)ccc1F [Example 24, 6-((1R,2S)-2-Aminocyclohexylamino)-4-(4-fluoro-3-methylphenylamino)-1H-pyrrolo[3,4-c]pyridin-3(2H)-one] — 20-fold lower, 25.1 nM
- Cn1cc(-c2nc(N[C@@H]3CCCC[C@@H]3N)cc3c2C(=O)NC3)cn1 [Example 26, 6-((1R,2S)-2-Aminocyclohexylamino)-4-(1-methyl-1H-pyrazol-4-yl)-1H-pyrrolo[3,4-c]pyridin-3(2H)-one] — 16-fold lower, 31.6 nM
- Cn1cc(-c2nc(N[C@@H]3CCOC[C@@H]3N)cc3c2C(=O)NC3)cn1 [Example 27, 6-((3R,4R)-3-Aminotetrahydro-2H-pyran-4-ylamino)-4-(1-methyl-1H-pyrazol-4-yl)-1H-pyrrolo[3,4-c]pyridin-3(2H)-one] — 13-fold lower, 39.8 nM
- Cn1cc(-c2nc(N[C@@H]3CCCC[C@@H]3N)c(Cl)c3c2C(=O)NC3)cn1 [Example 29, 6-((1R,2S)-2-Aminocyclohexylamino)-7-chloro-4-(1-methyl-1H-pyrazol-4-yl)-1H-pyrrolo[3,4-c]pyridin-3(2H)-one] — 160-fold lower, 3.16 nM
- N[C@H]1CCCC[C@H]1Nc1nc(-c2cnn3ccccc23)c2c(c1F)CNC2=O [Example 31, 6-((1R,2S)-2-Aminocyclohexylamino)-7-fluoro-4-(pyrazolo[1,5-a]pyridin-3-yl)-1H-pyrrolo[3,4-c]pyridin-3(2H)-one] — 200-fold lower, 2.51 nM
- Cc1cccc(Nc2nc(N3CCCCC3CN)nc3c2C(=O)NC3)c1 (centres unmarked) [Example 32, 2-(2-(Aminomethyl)piperidin-1-yl)-4-(m-tolylamino)-6,7-dihydro-5H-pyrrolo[3,4-c]pyrimidin-5-one] — 7.9-fold higher, 3980 nM
- CS(=O)(=O)c1cccc(Nc2nc(N[C@@H]3CCCC[C@@H]3N)cc3c2C(=O)NC3)c1 [Example 33, 6-((1R,2S)-2-Aminocyclohexylamino)-4-(3-(methylsulfonyl)phenylamino)-1H-pyrrolo[3,4-c]pyridin-3(2H)-one] — 10-fold lower, 50.1 nM
- CS(=O)(=O)c1cccc(Nc2nc(N[C@@H]3CCC[C@@H]3N)cc3c2C(=O)NC3)c1 [Example 34, 6-((1R,2S)-2-Aminocyclopentylamino)-4-(3-(methylsulfonyl)phenylamino)-1H-pyrrolo[3,4-c]pyridin-3(2H)-one (HCl salt)] — 1.6-fold lower, 316 nM
- CC(C)C[C@@H](Nc1cc2c(c(Nc3cccc(S(C)(=O)=O)c3)n1)C(=O)NC2)C(N)=O [Example 35, (R)-4-Methyl-2-(4-(3-(methylsulfonyl)phenylamino)-3-oxo-2,3-dihydro-1H-pyrrolo[3,4-c]pyridin-6-ylamino)pentanamide] — 10-fold lower, 50.1 nM
- CC(C)C[C@@H](Nc1cc2c(c(-c3cnn(C)c3)n1)C(=O)NC2)C(N)=O [Example 36, (R)-4-Methyl-2-(4-(1-methyl-1H-pyrazol-4-yl)-3-oxo-2,3-dihydro-1H-pyrrolo[3,4-c]pyridin-6-ylamino)pentanamide] — 20-fold lower, 25.1 nM
- Cc1cccc(Nc2nc(N[C@@H]3CCCC[C@@H]3N(C)C)nc3c2C(=O)NC3)c1 [Example 37, 2-((1R,2S)-2-(Dimethylamino)cyclohexylamino)-4-(m-tolylamino)-6,7-dihydro-5H-pyrrolo[3,4-d]pyrimidin-5-one] — 2-fold higher, 1000 nM
